Measured values published in patent US5468760A, “Aralkyl-N-hydroxyureas as inhibitors of 5-lipoxygenase and oxidation of low density lipoprotein” (American Home Products Corporation, priority 1993, dated 1995).

Experiments:
[1] = molecular target: T1, 5-Lipoxygenase (Homo sapiens, UniProt P09917); experiment: Inhibition of 5-Lipoxygenase in Human Whole Blood (LTB4, calcium ionophore A23187); assay type: cell-based; conditions: 1 μM
T1 construct: endogenous in cells; host or cells: human whole blood from male donors (results expressed per 10^6 neutrophils)
T1 sequence (P09917 1-674): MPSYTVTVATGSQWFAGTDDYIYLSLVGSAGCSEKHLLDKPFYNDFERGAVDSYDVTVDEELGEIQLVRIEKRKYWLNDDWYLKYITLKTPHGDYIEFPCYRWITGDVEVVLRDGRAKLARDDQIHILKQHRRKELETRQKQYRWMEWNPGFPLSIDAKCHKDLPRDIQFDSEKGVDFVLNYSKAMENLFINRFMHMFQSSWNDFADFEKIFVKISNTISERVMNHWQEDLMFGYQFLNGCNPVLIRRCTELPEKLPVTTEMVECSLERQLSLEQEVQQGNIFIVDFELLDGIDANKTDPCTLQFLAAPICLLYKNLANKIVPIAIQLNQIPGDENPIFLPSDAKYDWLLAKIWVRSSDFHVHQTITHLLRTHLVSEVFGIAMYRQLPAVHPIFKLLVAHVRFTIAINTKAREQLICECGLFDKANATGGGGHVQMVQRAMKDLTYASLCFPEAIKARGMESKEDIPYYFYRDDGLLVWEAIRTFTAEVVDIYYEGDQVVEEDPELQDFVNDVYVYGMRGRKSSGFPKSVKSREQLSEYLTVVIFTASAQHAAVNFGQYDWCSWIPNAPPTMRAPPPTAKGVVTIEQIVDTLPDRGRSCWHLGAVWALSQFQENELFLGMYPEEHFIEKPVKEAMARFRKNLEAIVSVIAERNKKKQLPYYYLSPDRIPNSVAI
Experimental: 1. Inhibition of 5-Lipoxygenase in Human Whole Blood
Blood is obtained in 50-100 ml quantities from male donors. White blood cell counts and differentials are made. Two ml of blood are placed in a 15 ml polypropylene test tube. Test compounds are solubilized in dimethylsulfoxide and diluted in 1:10 in 10% bovine serum albumin in phosphate buffered saline, pH 7.4 resulting in a final dimethylsulfoxide concentration of 0.1% in the blood. Then, solutions of test compounds are added to the blood in a shaking water bath at 37° C. for 10 minutes prior to the addition of 30 μM calcium ionophore (A23 187, Sigma). After ionophore administration, whole blood samples are mixed and incubated for 20 minutes at 37° C. in a shaking water bath. Incubation is terminated by placing samples in an ice bath and immediately adding ethylene glycol-bis-(β-aminoethyl ether)-N,N,N',N'-tetraaceticacid (10 mM). Samples are mixed and centrifuged at 1200 x g for 15 minutes at 4° C. Preparation of samples for evaluation by RIA or ELISA is carried out by the following protocol. Plasma is removed from sample tubes, placed in 15 ml polypropylene test tubes containing 8 ml methanol, and then vortexed to precipitate protein. Samples are stored at -70° C. overnight. The next day, samples are centrifuged at 200 x g for 15 minutes at 4° C. to pellet the precipitate. Samples are dried in a Savant SpeedVac Concentrator, Model SVC 200H, reconstituted to original volume with ice cold RIA or ELISA buffer, and stored at -70° C. until assayed. The assay for eicosanoids (LTB4, TxB2, and PGE2) is performed as described by the manufacturer of the [^3 H]-RIA kit or ELISA kit (LTB4 -Amersham, TxB2 and PGE2 -Caymen Chemical).
The total eicosanoid level in 2 ml of blood is calculated and reported as ng/10^6 neutrophils. Significance is determined by a one-way analysis of variance with least significant difference (LSD) comparisons to control (p≤0.05) and IC50 's (μM) are determined by regression analysis (Finney, 1978). Drug effects are expressed as percent change from control values.

[2] = tested on: Lipoxygenase; experiment: Ex-Vivo Measurement of Lipoxygenase Inhibition in Orally Dosed Rats (LTB4); set-up: species or system rat (male Sprague Dawley); conditions: p.o., pretreatment period 6 hr
Experimental: 2. Ex-Vivo Measurement of Lipoxygenase Inhibition in Orally Dosed Rats
Male Sprague Dawley rats (Charles River) weighing between 180 g and 200 g were dosed orally with an invention compound (1-25 mg/kg, po) suspended in 0.5% Tween 80®. After an interval of 3 or 6 hours, the rats were anesthetized with metofane (n=4/group) and blood collected in heparinized tubes. White blood cell counts and differentials were made. One ml of blood from each animal was placed in a 5 ml plastic tube in a shaker bath at 37° C. A23187 at a final concentration of 10 μM was added to the blood and the blood vortexed and incubated for 15 min at […] with gentle shaking. Incubation was terminated by vortexing sample and centrifuging immediately at 1200 xG for 15 min at 4° C. The plasma was transferred to 15 ml plastic tubes each containing 8 ml of methanol to precipitate protein followed by vortexing. The samples were stored at -70 ° C. overnight and the next day the samples were centrifuged at 800 xG for 15 min to pellet the precipitate. The samples were dried in a Savant SpeedVac Concentrator Model SVC 200H and reconstituted to the original volume with cold RIA or ELISA buffer. The reconstituted samples were stored at -70° C. until assayed. The assay for LTB4 was performed according to the directions of the [^3 H]RIA kit or ELISA kit (Seragen). The total metabolite level in 1 ml of blood is calculated and reported as ng/10^6 neutrophils. Significance is determined by a one-way analysis of variance with LSD comparisons to control (p≤0.05).

[3] = tested on: LTB4 Synthesis; experiment: Reverse Passive Arthus Reaction (pleurisy), LTB4 in pleural exudate; assay type: in vivo, rat (male Lewis); conditions: 10 mg/kg, p.o.
Experimental: 3. Reverse Passive Arthus Reaction
A reverse passive Arthus reaction is induced in the pleural cavity of male Lewis rats (150-200 g; fasted overnight prior to use) by the intravenous administration of bovine serum albumin (BSA; 4 mg/0.2 ml) followed 30 minutes later by the injection of rabbit anti-BSA (1 mg/0.2 ml; lyophilized IgG fraction; Organon Teknika, West Chester, Pa.) into the right pleural space under halothane anesthesia. Drugs or vehicle (0.5% Tween-80) control are administered orally in a volume of 1 ml/100 g body weight at 1 hour prior to the anti-BSA. Animals are sacrificed at either the time of peak eicosanoid production (i.e. 5 minutes after anti-BSA for immunoreactive TxB2, 10 minutes for immunoreactive LTB4, 20 minutes for immunoreactive LTC4) or at the time of peak neutrophil infiltration (4 hours after anti-BSA) by CO2 inhalation. The pleural cavity is then exposed., the fluid exudate removed by gentle vacuum aspiration and the volume of exudate is recorded. For the determination of cellular infiltration, the pleural cavity is rinsed with 3 ml of 0.1% EDTA in sterile saline, and the recovered wash is pooled with the exudate. Cell number is determined on a model ZBI Coulter counter. For determination of eicosanoid production, undiluted pleural exudate is microfuged and the supernatant is extracted with ethanol (8-10 times volume). Extracts are either stored at -20° C., or are evaporated to dryness under a stream of N2 and reconstituted in radioimmunoassay (RIA) buffer.
Eicosanoids are quantitated by RIA according to the procedure specified by the RIA kit manufacturer (Advanced Magnetics, Cambridge, Mass.). Briefly, 100 μl of ^3 H-labeled eicosanoid and 100 μl of specific antibody are sequentially added to 100 μl of extracted pleural exudate in BGG-phosphate buffer which contains 0.01M phosphate, 0.1% bovine gamma globulin and 0.1% sodium azide at pH 7.0. Antibody-bound eicosanoid is separated from unbound eicosanoid by the addition of 750 μl of dextran (0.4%)-coated charcoal (Norit A) containing 0.1% sodium azide. The mixture is centrifuged at 2000 RPM at 5° C. for 15 minutes to pellet the charcoal and adsorbed unbound eicosanoid. Antibody-bound labeled eicosanoid is quantitated by counting in a liquid scintillation counter, and is correlated to concentration by a standard curve.

[4] = tested on: LDL; conditions: cell mediated and Cu^+2 mediated; cited from earlier work
[5] = tested on: atherosclerotic lesions; conditions: WHHL rabbits; cited from earlier work
[6] = tested on: LT-dependent bronchoconstriction; experiment: Inhibition of Bronchoconstriction in Guinea Pigs Induced by Exogenously Administered Antigen; assay type: in vivo, guinea pig (male); conditions: Cavia porcellus, 5 min, 5 min post-antigen challenge
Experimental: 4. Inhibition of Brochoconstriction in Guinea Pigs Induced by Exogenously Administered Antigen
Male guinea pigs (Charles River, Wilmington, Mass.) were sensitized 3-4 weeks prior to antigen challenge by administration of 2 i.m. injections of ovalbumin, 1 into each hind limb (35 mg total). Sensitized animals (500-600 g) were fasted overnight prior to experimentation. Conscious animals were then dosed p.o. with drug or vehicle alone (0.5% Tween 80 in H2 O) at the indicated times prior to antigen challenge, or anesthetized animals were dosed i.v. with drug or vehicle alone (DMSO) 5 min prior to antigen challenge. Animals were anesthetized by urethane (2.8 g/kg i.p.). A carotid artery and jugular vein were cannulated to allow for the monitoring of blood pressure and the administration of drugs, respectively. The trachea was then cannulated and connected to a Harvard Apparatus rodent ventilator (S. Natick, Mass.). Spontaneous respiration was abolished by the administration of succinylcholine (2.5 mg/kg i.v.). The animals were then ventilated with room air at a rate of 65 breaths per min. Airway inflation pressure was measured using a Statham pressure transducer (Gould Instruments, Cleveland, Ohio) connected to the tracheal cannula via a side-arm and recorded on a Grass Instruments recorder (Quincy, Mass.). The tidal volume (approximately 10 cc/kg) was adjusted to give a baseline inflation pressure of 8-10 cm H2 O at end inspiration. Animals were then allowed 20 min to stabilize.
Following the stabilization period, animals were given i.v. injections of pyrilamine (5 mg/kg), propranolol (0.1 mg/kg) and indomethacin (10 mg/kg) at 15, 10 and 5 min, respectively, prior to antigen challenge. This pretreatment results in an LT-dependent bronchoconstriction following antigen challenge, which was accomplished by i.v. administration of ovalbumin (10 mg/kg). Only one bronchoconstriction per animal was induced. End-inspiratory inflation pressure (in cm H2 O over baseline) was measured at 5 min post-antigen challenge. A mean value and standard error for the % inhibition of control bronchoconstriction in each drug-treated group was then calculated.

inhibition at 1 µM [1] [%]	Structure (SMILES)	% Inhibition of LTB4 ([2]; 5 mg/kg) [%]	% Inhibition LTB4 Synthesis [3] [%]	inhibition of oxidative modification of LDL [4]	inhibition of formation of atherosclerotic lesions [5]	% Inhibition of LTB4 ([2]; 10 mg/kg) [%]	inhibition in vivo at 10 mg/kg ([6]; iv, 10 mg/kg i.v.) [%]	inhibition in vivo at 25 mg/kg ([6]; po, 25 mg/kg p.o.) [%]
48	Cc1oc(-c2ccc(C(F)(F)F)cc2)nc1COc1cccc(CN(O)C(N)=O)c1 [Example 2, 1-Hydroxy-1-[3-[5-methyl-2-(4-trifluoromethyl-phenyl)-oxazol-4-ylmethoxy]-benzyl]-urea]	45	59					
	CC(C)(Sc1cc(C(C)(C)C)c(O)c(C(C)(C)C)c1)Sc1cc(C(C)(C)C)c(O)c(C(C)(C)C)c1 [Probucol]			inhibits both cell mediated and Cu^+2 mediated oxidative modification of LDL	inhibit the formation of atherosclerotic lesions in WHHL rabbits			
74	NC(=O)N(O)Cc1cccc(OCc2coc(-c3ccc(F)cc3)n2)c1 [Example 3, 1-[3-[2-(4-fluoro-phenyl)-oxazol-4-ylmethoxy]-benzyl]-1-hydroxy-urea]					85	84	26
